Laboratory results as given in the NIST ThermoML archive (doi:10.1016/j.jct.2009.07.014).

Assay: excess molar enthalpy (molar enthalpy of mixing); xn = mol fraction of the nth substance listed
Conditions: 101.3 kPa, Liquid, Flow calorimetry

CCCCO [butan-1-ol] + CCCCCCC
excess molar enthalpy [kcal/mol]
Conditions	298.15 K	313.15 K
x2 = 0.0502	0.0176	0.0246
x2 = 0.0999	0.0352	–
x2 = 0.1	–	0.049
x2 = 0.1504	0.0519	–
x2 = 0.1505	–	0.0727
x2 = 0.2	0.0674	–
x2 = 0.2001	–	0.0944
x2 = 0.2498	0.0823	–
x2 = 0.2499	–	0.115
x2 = 0.2998	0.096	–
x2 = 0.2999	–	0.134
x2 = 0.3497	0.108	–
x2 = 0.3498	–	0.151
x2 = 0.4004	0.119	0.166
x2 = 0.4496	0.129	0.179
x2 = 0.5001	0.137	–
x2 = 0.5002	–	0.19
x2 = 0.5498	0.144	–
x2 = 0.5499	–	0.198
x2 = 0.5996	0.148	–
x2 = 0.5997	–	0.202
x2 = 0.6504	0.149	–
x2 = 0.6505	–	0.204
x2 = 0.6999	0.147	0.202
x2 = 0.7501	0.143	0.197
x2 = 0.7998	0.135	0.189
x2 = 0.8502	0.125	0.175
x2 = 0.8997	–	0.155
x2 = 0.8998	0.11	–
x2 = 0.9497	0.0863	0.121
